In patent US12097174B2, “Methods and agents that enhance myogenic progenitor cell engraftment” (President and Fellows of Harvard College, priority 2018, dated 2024):
“Also recorded” adds a separate entry of the source.

Tested on: Zebrafish myogenic progenitor cells (ZeMPCs)
Assay: Limiting dilution engraftment assay (ELDA): cells treated ex vivo, transplanted into adult zebrafish, imaged at 7 dpt
Assay type: in vivo
Conditions: for engraftment efficiency compared with DMSO/vehicle-treated cells: 0.1 μM LPA or 0.3 μM NFA; for engraftment efficiency relative to vehicle-treated controls: 5 μM LPA or 10 μM NFA; for engraftment capacity of transplanted myogenic progenitors in recipient adult zebrafish: 4 hour ex vivo chemical exposure, replicate transplantation
Method: Donor cells were derived from embryos that contained a GFP cassette driven by the promoter for mylz2, a muscle-specific structural protein. Recipients were optically clear, immunocompromised adult prkdc−/− zebrafish. To perform a limiting dilution assay, three doses (n=100, 200, and 400 cells) were administered per treatment (n=10 engraftment events per treatment-dose combination). The estimated engrafting cell frequency was calculated using the Extreme Limiting Dilution Analysis (ELDA, Hu et. al. 2009), which provides the most likely estimate (MLE) of engrafting cell frequency.
Given that this group of 230 lipids is too many to be examined in mice, transplantation efficiency was instead examined via limit-dilution assays in 15 recipient zebrafish per compound after a brief (4 hour) ex vivo chemical exposure. Positive hits from this primary screening were rescreened in replicate transplantation experiments incorporating dose response testing.
Lipids are frequently found to enhance cell migration and homeostasis in blood and muscle tissue (Cencetti et al., 2014; Lahvic et al., 2018; Li et al., 2015; Oh et al., 2016), and so it was elected to screen mainly bioactive lipids in efforts to identify compounds that enhance ZeMPCs engraftment efficiency in vivo. Myogenic progenitor cells were treated for 4 hours with one of the 188 unique lipid compounds contained in the ICCB Known Bioactives Library. Compound-treated cells were then harvested and transplanted intramuscularly into both flanks of 5 different casper recipient fish, with transplants performed at each of 3 transplanted cell doses (25, 75 or 150 cells). In these studies, recipient fish received split-dose irradiation of 15 Gy at 2 days and 1 day prior to transplantation to suppress any immune responses to the transplanted cells. Engraftment efficiency was measured by imaging casper recipients at 7 dpt (FIG. 18A). […] For this secondary screening approach, cells were transplanted into prkdc^D3612ls casper fish, which are deficient in mature T and B cells, and assayed engraftment efficiency in the recipient fish 7 days post-transplantation. Two compounds were identified, lysophosphatidic acid (LPA) and niflumic acid (NFA), which increased ZeMPC engraftment efficiency in both of these assay systems (FIG. 12B).
Lipids from the ICCB Known Bioactives Library (enzolifesciences.com/BML-2840/iccb-known-bioactives-library) were diluted at a 1:100 ratio in transplantation media (zESC medium without bFGF and FBS) and added to prewashed in vitro expanded muscle cells. NFA (Cayman and Santa Cruz Biotechnology) and LPA (Cayman and Santa Cruz Biotechnology) were used for the secondary confirmation screening experiments. […] 4- to 8-month-old casper recipients received split-dose irradiation of 15 Gy each, either 2 days or 1 day before transplantation. For LDA screening, cells were transplanted into each side of 5 pre-irradiated casper recipient fish or 5 non-irradiated prkdc-mutant recipient zebrafish. At 7 dpt, the recipients were anaesthetized using a previously described method (Dang et al., 2016) and imaged using a fluorescent stereo microscope (Leica M165 FC). Successful engraftment was defined as the presence of GFP+ fibers. Variation in different experiments is caused by inherent variability in the in vitro ZeMPC derivation procedure, which results in differences in engrafting cell frequency across different derivation attempts. To mitigate the impact of such experimental variation on screening results, only LDA results for cells derived from the same cultures were compared. Comparison to a vehicle-treated experimental control was included in every transplantation experiment. Next, the chemical treated cell potency and vehicle-treated cell potency was measured using the Extreme Limiting Dilution Analysis (ELDA) software (Hu and Smyth, 2009). The ratio of the treated cell potency and vehicle-treated cell potency determine the engraftment efficiency fold increase value.

Compound	engraftment efficiency compared with DMSO/vehicle-treated cells	engraftment efficiency relative to vehicle-treated controls [times]	engraftment efficiency compared with DMSO treated cells (15 uM NFA or 4 uM LPA)	engraftment capacity of transplanted myogenic progenitors in recipient adult zebrafish	engraftment efficiency relative to DMSO-treated cells (ZeMPCs treated for 1 hour)	engraftment efficiency relative to DMSO-treated cells (ZeMPCs treated for 2 hours) [times]	engraftment efficiency relative to DMSO-treated cells (ZeMPCs treated for 4 hours) [times]	engraftment efficiency compared with DMSO treated cells (0.3 uM LPA)
O=C(O)c1cccnc1Nc1cccc(C(F)(F)F)c1 [NFA, niflumic acid]	did not change the engraftment efficiency; also recorded: did not alter the engraftment efficiency; also recorded: no difference	2.37	increased engraftment efficiency	increasing the engraftment capacity	did not alter	2.85	2.64	–
lysophosphatidic acid [LPA]	did not change the engraftment efficiency; also recorded: did not alter the engraftment efficiency; also recorded: did not result in any change	2.34	increased engraftment efficiency	increasing the engraftment capacity	1.11 times	1.72	2.3	did not change the engraftment efficiency
